Assays:
DLD-1 cancer cells = experiment: MTS assay, DLD-1 cells; type: cell-based; set-up: concentration or dose not given beside the values
Protocol: (§1) Cells were maintained at 37° C., 5% CO2 in DMEM media supplemented with 1% fetal bovine serum, penicillin/streptomycin and fungizone (Invitrogen). Cells were seeded into 96-well tissue culture plates at 3000 per well and cultured at 37° C. for 18 hours. Test compounds were dissolved and diluted to 300× in DMSO then diluted 1:40 in DMEM. Cells were incubated with test compounds for 72 hours followed by incubation with tetrazolium compound (3-(4,5-dimethylthiazol-2-yl)-5-(3-carboxymethoxyphenyl)-2-(4-sulfophenyl)-2H-tetrazolium, inner salt; MTS) and the electron coupling reagent, phenazine methosulfate (PMS) for 4 hours. […] The ability of compounds to inhibit cell growth in this assay is correlated with the reduction of dehydrogenase enzyme activity found in metabolically active cells. The measurement of the absorbance of the formazan was assessed using a Victor (Perkin Elmer) microplate reader at 492 nm. The calculated IC50 value is the concentration of the test compound that causes a 50% decrease in the absorbance. Percent inhibition by representative compounds of the present invention in MDA-MB231 and DLD-1 cancer cells is shown in Table 4.

MDA-MB-231 cancer cells = experiment: MTS assay, MDA-MB-231 cells; type: cell-based; set-up: concentration or dose not given beside the values
Protocol: as §1

FGFR2 (N549H) = target: T1, FGFR2 (N549H) (Homo sapiens, UniProt P21802, N549H); experiment: FGFR2 kinase activity assay (fluorescent ELISA); type: biochemical; conditions: 30 μM compound
T1 construct: purchased Millipore 14-742
Protocol: A fluorescent ELISA assay was developed to identify and characterize inhibitors of FGFR2 kinase. This heterogeneous assay utilized a biotinylated peptide with a tyrosine motif as a substrate and an anti-phospho-tyrosine antibody to measure phosphorylation of the substrate. The reaction was initiated by adding a test compound, 37 uM Pyk2 substrate (Midwest Biotech, cat. #MBT2383), 12.5 uM ATP (Roche, cat. #11 140 965 001), and 0.5 uM FGFR2 enzyme (Millipore, cat. #14-742) sequentially to a non-binding polypropylene V-well plate. All reagents were in assay buffer consisting of: 50 mM Tris-HCL, 0.02 mg/mL BSA, 10 mM MgCl2, 0.1 mM Na3VO4, 1 mM EGTA, […], 0.01% NP-40, 2 mM DTT, 10% Glycerol. The reaction was incubated for 60 minutes. As the reaction proceeded, FGFR2 phosphorylated tyrosines in the peptide. The reaction mixture was then moved to a blocked streptavidin coated Nunc Maxisorb plate (coated with 100 ng streptavidin from Pierce (cat #15-124) per well) allowing for the capture of the biotinylated peptide. Peptide was captured for 30 minutes at room temperature, the phosphorylation of peptide continues during this phase. The reaction was stopped by washing the Streptavidin plate 6 times with TBST. Phosphorylated peptide was detected by adding anti-phospho tyrosine antibody (purchased from Cell Signaling, cat. #9411, diluted 1:3000), unbound antibody was removed by washing 6 times with TBST. Secondary detection was performed using Alkaline Phosphatase tagged goat anti-mouse antibody (purchased from Pierce, cat. #31320, diluted 1:4000) for one hour. Unbound secondary antibody was removed by washing 6 times with TBST.
The fluorescent readout was initiated by the addition of Promega Attophos substrate (purchased from Promega; Kit catalog number: S1000, dilution=6 mg/10 mL), which when dephosphorylated by Alkaline phosphatase emitted a fluorescent signal of […] when excited by a signal […]. This reading was done on the Perkin Elmer Envision system. […] The signal was directly proportional to the activity of FGFR2 and compound inhibition of FGFR2 was monitored by a decrease in signal.

T1 sequence (P21802 22-821 N549H): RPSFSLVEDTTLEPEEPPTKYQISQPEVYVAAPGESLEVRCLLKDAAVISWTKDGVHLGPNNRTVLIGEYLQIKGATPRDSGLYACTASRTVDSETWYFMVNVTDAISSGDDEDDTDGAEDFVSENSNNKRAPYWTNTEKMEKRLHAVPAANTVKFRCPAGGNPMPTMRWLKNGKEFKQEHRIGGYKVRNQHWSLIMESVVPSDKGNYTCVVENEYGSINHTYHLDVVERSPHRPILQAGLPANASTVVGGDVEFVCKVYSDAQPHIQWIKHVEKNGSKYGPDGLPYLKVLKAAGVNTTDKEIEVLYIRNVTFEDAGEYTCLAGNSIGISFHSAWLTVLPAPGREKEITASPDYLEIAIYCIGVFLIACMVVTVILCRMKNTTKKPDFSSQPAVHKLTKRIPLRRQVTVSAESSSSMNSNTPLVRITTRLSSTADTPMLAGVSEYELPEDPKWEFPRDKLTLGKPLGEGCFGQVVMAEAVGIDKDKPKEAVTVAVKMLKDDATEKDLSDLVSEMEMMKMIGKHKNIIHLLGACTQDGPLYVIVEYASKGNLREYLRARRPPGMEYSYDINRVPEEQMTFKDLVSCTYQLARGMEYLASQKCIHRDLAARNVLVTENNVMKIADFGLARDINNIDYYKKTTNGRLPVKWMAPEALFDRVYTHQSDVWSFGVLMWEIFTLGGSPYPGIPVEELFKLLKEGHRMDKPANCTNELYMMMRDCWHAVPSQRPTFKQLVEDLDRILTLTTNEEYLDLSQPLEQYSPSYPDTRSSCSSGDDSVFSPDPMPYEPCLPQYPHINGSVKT

| inhibition at 30 µM (FGFR2 (N549H)) | Structure (SMILES) | DLD-1, MTS, 72 hours (% Inhibition) (DLD-1 cancer cells) | MDA-MB-231, MTS, 72 hours (% inhibition) (MDA-MB-231 cancer cells) |
| --- | --- | --- | --- |
| 51% | COc1ccccc1CNc1nccn2c(NC(=O)OC(C)C)nnc12 [Compound 15, isopropyl {8-[(2-methoxybenzyl)amino][1,2,4]triazolo[4,3-a]pyrazin-3-yl}carbamate] | 98% | 83% |
| 80.6% | COc1ccccc1CCNc1nccn2c(NC(=O)OC(C)C)nnc12 [Compound 58, isopropyl (8-{[2-(2-methoxyphenyl)ethyl]amino}[1,2,4]triazolo[4,3-a]pyrazin-3-yl)carbamate] | 10% | 59% |
| 82.5% | CC(C)OC(=O)Nc1nnc2c(N3CCCCC3)nccn12 [Compound 59, isopropyl (8-piperidin-1-yl[1,2,4]triazolo[4,3-a]pyrazin-3-yl)carbamate] | 48% | 53% |
| 74.2% | CCc1ccc(CCNc2nccn3c(NC(=O)OC(C)C)nnc23)cc1 [Compound 62, isopropyl (8-{[2-(4-ethylphenyl)ethyl]amino}[1,2,4]triazolo[4,3-a]pyrazin-3-yl)carbamate] | 93% | 78% |
| 75.7% | CCN(c1ccccc1C)c1nccn2c(NC(=O)OC(C)C)nnc12 [Compound 63, isopropyl {8-[ethyl(2-methylphenyl)amino][1,2,4]triazolo[4,3-a]pyrazin-3-yl}carbamate] | 98% | 76% |
| 96.9% | CC(C)OC(=O)Nc1nnc2c(NCc3cccc(C(F)(F)F)c3)nccn12 [Compound 81, isopropyl (8-{[3-(trifluoromethyl)benzyl]amino}[1,2,4]triazolo[4,3-a]pyrazin-3-yl)carbamate] | 98% | 99% |
| 65.2% | CC(C)OC(=O)Nc1nnc2c(N3CCC(n4c(=O)[nH]c5cc(Cl)ccc54)CC3)nccn12 [Compound 82, isopropyl {8-[4-(5-chloro-2-oxo-2,3-dihydro-1H-benzimidazol-1-yl)piperidin-1-yl][1,2,4]triazolo[4,3-a]pyrazin-3-yl}carbamate] | 97% | 92% |
| 88.8% | CC(C)OC(=O)Nc1nnc2c(NCc3cccc(F)c3)nccn12 [Compound 86, isopropyl {8-[(3-fluorobenzyl)amino][1,2,4]triazolo[4,3-a]pyrazin-3-yl}carbamate] | 97% | 98% |
| 60.8% | Cc1ccc(CCNc2nccn3c(N)nnc23)cc1 [Compound 90, N^8-[2-(4-methylphenyl)ethyl][1,2,4]triazolo[4,3-a]pyrazine-3,8-diamine] | 89% | 81% |
| 82.9% | Nc1nnc2c(NCCc3ccc(Oc4ccccc4)cc3)nccn12 [Compound 93, N^8-[2-(4-phenoxyphenyl)ethyl][1,2,4]triazolo[4,3-a]pyrazine-3,8-diamine] | 98% | 99% |
| 71.6% | Nc1nnc2c(NCCc3ccc(Cl)cc3)nccn12 [Compound 115, N^8-[2-(4-chlorophenyl)ethyl][1,2,4]triazolo[4,3-a]pyrazine-3,8-diamine] | 98% | 99% |
| 52.9% | Nc1nnc2c(NCc3ccc(Br)cc3)nccn12 [Compound 140, N^8-(4-bromobenzyl)[1,2,4]triazolo[4,3-a]pyrazine-3,8-diamine] | – | – |
| 59.9% | Nc1nnc2c(Nc3cccc(Br)c3)nccn12 [Compound 142, N^8-(3-bromophenyl)[1,2,4]triazolo[4,3-a]pyrazine-3,8-diamine] | – | – |
| 109% | COc1ccc(N(C)c2nccn3c(N)nnc23)cc1 [Compound 152, N^8-(4-methoxyphenyl)-N^8-methyl[1,2,4]triazolo[4,3-a]pyrazine-3,8-diamine] | – | – |
| 57.4% | CN(c1cccc(Cl)c1)c1nccn2c(N)nnc12 [Compound 155, N^8-(3-chlorophenyl)-N^8-methyl[1,2,4]triazolo[4,3-a]pyrazine-3,8-diamine] | – | – |

More lines, now with the values behind:

| Structure (SMILES) | inhibition at 30 µM (FGFR2 (N549H)) | DLD-1, MTS, 72 hours (% Inhibition) (DLD-1 cancer cells) | MDA-MB-231, MTS, 72 hours (% inhibition) (MDA-MB-231 cancer cells) |
| --- | --- | --- | --- |
| COc1cccc(Nc2nccn3c(NC(=O)OC(C)C)nnc23)c1 [Compound 5] | – | 96% | 98% |
| Cc1ccnc(N(Cc2ccccc2)c2nccn3c(NC(=O)OC(C)C)nnc23)c1 [Compound 8, Isopropyl {8-[benzyl(4-methylpyridin-2-yl)amino][1,2,4]triazolo[4,3-a]pyrazin-3-yl}carbamate] | – | 99% | 94% |
| CC(C)OC(=O)Nc1nnc2c(NCCC3CCCN3C)nccn12 (centres unmarked) [Compound 21, Isopropyl (8-{[2-(1-methylpyrrolidin-2-yl)ethyl]amino}[1,2,4]triazolo[4,3-a]pyrazin-3-yl)carbamate] | – | 58% | 69% |
| CC(C)OC(=O)Nc1nnc2c(NCc3ccc(C(C)(C)C)cc3)nccn12 [Compound 22, isopropyl {8-[(4-tert-butylbenzyl)amino][1,2,4]triazolo[4,3-a]pyrazin-3-yl}carbamate] | 100% | 98% | 99% |
| COc1ccccc1Nc1nccn2c(NC(=O)OC(C)C)nnc12 [Compound 39, isopropyl {8-[(2-methoxyphenyl)amino][1,2,4]triazolo[4,3-a]pyrazin-3-yl}carbamate] | 78.3% | 97% | 97% |
| CC(C)OC(=O)Nc1nnc2c(Nc3ccc(Br)cc3)nccn12 [Compound 52, isopropyl {8-[(4-bromophenyl)amino][1,2,4]triazolo[4,3-a]pyrazin-3-yl}carbamate] | 95.1% | 97% | 98% |
| CC(C)OC(=O)Nc1nnc2c(N(C)c3ccccn3)nccn12 [Compound 53, isopropyl {8-[methyl(pyridin-2-yl)amino][1,2,4]triazolo[4,3-a]pyrazin-3-yl}carbamate] | 68.1% | 96% | 99% |
| CCN(c1cc(O)ccc1C)c1nccn2c(NC(=O)OC(C)C)nnc12 [Compound 64, isopropyl {8-[ethyl(5-hydroxy-2-methylphenyl)amino][1,2,4]triazolo[4,3-a]pyrazin-3-yl}carbamate] | 57.2% | 26% | 51% |
| COc1ccc(CCNc2nccn3c(N)nnc23)cc1 [Compound 117, N^8-[2-(4-methoxyphenyl)ethyl][1,2,4] triazolo[4,3-a]pyrazine-3,8-diamine] | – | 97% | 99% |
| Nc1nnc2c(NCCc3ccccc3)nccn12 [Compound 136, N^8-(2-phenylethyl)[1,2,4]triazolo [4,3-a]pyrazine-3,8-diamine] | – | 97% | 76% |
| Nc1nnc2c(NCc3ccccc3C(F)(F)F)nccn12 [Compound 143, N^8-[2-(trifluoromethyl)benzyl][1,2,4]triazolo[4,3-a]pyrazine-3,8-diamine] | 73.2% | – | – |
| Nc1nnc2c(NCc3ccccc3F)nccn12 [Compound 153, N^8-(2-fluorobenzyl)[1,2,4]triazolo[4,3-a]pyrazine-3,8-diamine] | 72.9% | – | – |
| COc1ccc(Cl)c(Nc2nccn3c(N)nnc23)c1 [Compound 154, N^8-(2-chloro-5-methoxyphenyl)[1,2,4]triazolo[4,3-a]pyrazine-3,8-diamine] | 82.8% | – | – |
